Assay results as given in patent publication US20230263751A1, “Compositions and Methods of Use of beta-hydroxy-beta-methylbutyrate (HMB) and Chemotherapy Agents” (Metabolic Technologies, LLC, priority 2020, published 2023).

Experiments:
EAC cells [1] = assay: Assessment of death type in harvested tumor cells (propidium iodide/acridine orange)
Procedure: The mice were divided into 5 groups (n=6): Normal (healthy animals), Control (saline), Doxo (1 mg/kg/day), HMB (617.3 mg calcium HMB/kg/day) and Doxo+HMB (1 mg/kg/day and 617.3 mg/kg/day, respectively). The animals belonging to the Control, Doxo, HMB and Doxo+HMB groups were inoculated with EAC cells (200 μL, 5×10^6 cells) by intraperitoneal injection and treatment of animals was started after 96 hours. The dose of HMB was defined based on the recommendation for adult men of 70 kg, that is, 3 g/day (supplementary form) [21].
Harvested tumor cells (5×10^6) were stained with 1 μL of a solution (1:1) of propidium iodide (100 μg/mL) and acridine orange (100 μg/mL). The samples were read by fluorescence microscopy on the green (excitation at 460 nm and emission at 520 nm) and red (excitation at 492 nm at emission at 620 nm) filters, and the results were expressed as percentage of viable (green), apoptotic (orange) and necrotic (red) cells [24].

Bax/Bcl-xl = assay: Western blotting of Bax and Bcl-xl in EAC cells (Bax/Bcl-xl ratio); format: in vivo, Balb/c mice (Mus musculus)
Procedure: Apoptotic markers were evaluated by Western blotting. […] The proteins were further denatured in Laemmli buffer and equivalent amounts were subjected to SDS-PAGE electrophoresis, followed by electroblotting on PVDF membranes. The membranes were blocked and then incubated with the primary monoclonal antibodies: p53 (Santa Cruz Biotechnology, DO-1; sc-126), Bax (Santa Cruz Biotechnology, B-9; sc-7480) and BcL-xl (Santa Cruz Biotechnology, H-5; sc-8392), and subsequently incubated with peroxidase conjugated secondary antibodies (Dako and Chemicon). Immunodetection was performed using a chemiluminescence determination kit, and β-actin was used as a loading control.

IL-1β = IL-1β in gastrocnemius muscle by ELISA; format: in vivo, Balb/c mice (Mus musculus)
Procedure: (§1) For the determination of cytokines, the gastrocnemius muscle was homogenized in a RIPA buffer supplemented with 1% protease and 3% phosphatase inhibitors, in the proportion 1 mg tissue:10 μl buffer, followed by centrifugation of the homogenate at 12,000 g and 4° C., for 10 minutes. An aliquot of the supernatant was used to determine the cytokines IL-1β and IL-6 by ELISA immunoassay using DuoSet® Kit (R&D System, USA), according to the manufacturer recommendations.

EAC cells [2] = assay: Survival assessment of mice with EAC (Kaplan and Meier); format: in vivo, Balb/c mice (Mus musculus); conditions: for Mean survival time: mice with EAC, n=12, observation discontinued after 30 days, Control 16 days
From the text: (§2) In addition, after euthanasia, all ascitic fluid was collected to measure volume and weight. Finally, Balb/c mice (n=12) were chosen at random and kept alive to assess the effects of HMB, Doxo and Doxo+HMB on survival time according to Kaplan and Meier (1958); survival assessments were discontinued after 30 days.

[3] = Cachexia assessment (food intake, weight loss, muscle and fat mass) of mice with EAC; format: in vivo, Balb/c mice (Mus musculus); conditions: 9 days; for Average daily food intake: Control 2.17±0.69, Normal 3.30±0.60; for Brown adipose tissue mass / Dry weight soleus muscle / Mesenteric fat mass / Subcutaneous fat mass / Wet weight gastrocnemius muscle / Wet weight soleus muscle: mean ± SD, n=6
From the text: To determine average daily food intake, the weight of the feed consumed was divided by the number of animals in each cage. To evaluate the percentage of weight loss, the “initial weight” (before inoculation of the EAC), “final weight” (after 9 days of treatment) and “carcass weight” (final weight−weight of ascitic liquid) were considered according to standardized equation [27].
The soleus and gastrocnemius muscles were quickly removed and weighed on an analytical balance (wet mass). Soleus samples were used to determine the dry weight after 3 days at 60° C., and the gastrocnemius was kept at −80° C. for the determination of cytokines. The wet mass of the gastrocnemius and soleus muscle (mg) was normalized by the length of the tibia (mm) of the mice. Subcutaneous fat deposits, mesentery and brown adipose tissue were also removed and immediately weighed.

IL-6 = IL-6 in gastrocnemius muscle by ELISA; format: in vivo, Balb/c mice (Mus musculus); conditions: in relation to the Control group
Procedure: as §1

C-reactive protein = assay: Serum C-reactive protein (Ultra Turbiquest Plus CRP kit); format: in vivo, Balb/c mice (Mus musculus); conditions: for Serum C-reactive protein levels: mice with EAC, 9 days, Control 1.63, Normal 0.07
Procedure: The determination of C-reactive protein (CRP) in serum was performed by the Ultra Turbiquest Plus® CRP kit, according to the manufacturer instructions.

EAC cells [4] = assay: Tumor growth inhibition and morphological evaluation of mice with EAC; format: in vivo, Balb/c mice (Mus musculus); conditions: 9 days treatment
Procedure: Female (18 to 23 g weight, 60 days) Balb/c mice (Mus musculus) obtained from controlled reproduction carried out in the sectoral bioterium of the Federal University of Santa Catarina (Brazil), were kept in plastic cages under controlled environmental conditions (12 h light-dark cycle, 25±2° C., relative humidity 60%), receiving commercial feed and water ad libitum.
The moment before the tumor was inoculated, the abdominal circumference was measured. The treatments were administered intraperitoneally for 9 consecutive days. Twenty-four hours after the last treatment, all mice were weighed and their abdominal circumferences measured again. The inhibition (%) of tumour growth was calculated as follow: [(average in waist circumference of the treated group×100)/average in waist circumference of the control group]−100.
as §2

p53 = assay: Western blotting of p53 in EAC cells; format: in vivo, Balb/c mice (Mus musculus); conditions: p53/actin
Procedure: (§3) Apoptotic markers were evaluated by Western blotting. EAC cells were washed with PBS and lysed in RIPA buffer supplemented with 1% protease and 3% phosphatase inhibitors. The proteins were further denatured in Laemmli buffer and equivalent amounts were subjected to SDS-PAGE electrophoresis, followed by electroblotting on PVDF membranes. The membranes were blocked and then incubated with the primary monoclonal antibodies: p53 (Santa Cruz Biotechnology, DO-1; sc-126), Bax (Santa Cruz Biotechnology, B-9; sc-7480) and BcL-xl (Santa Cruz Biotechnology, H-5; sc-8392), and subsequently incubated with peroxidase conjugated secondary antibodies (Dako and Chemicon). Immunodetection was performed using a chemiluminescence determination kit, and β-actin was used as a loading control. Images were obtained with the ChemiDoc MP (Bio Rad) system.

[5] = system: tumors injected into the peritoneal cavity; conditions: rats; cited from earlier work
COX-2 = COX-2 expression in EAC cells by Western blotting; format: in vivo, Balb/c mice (Mus musculus); conditions: COX-2/actin in EAC cells
Procedure: as §3
The COX-2 expression in EAC cells was assessed by Western blotting as described in item 2.2.3. Antibodies to COX-2 were purchased from Cell Signaling (#4842)

[6] = serum HMB levels; cited from earlier work
[7] = EAC cells harvested after 9 days treatment

Row | SMILES | Mean survival time (EAC cells [2]) [days] | Average daily food intake [3] [g/day] | Brown adipose tissue mass [3] [mg/cm mouse length] | Dry weight soleus muscle [3] [mg/mm tibia length] | Mesenteric fat mass [3] [mg/cm mouse length] | Subcutaneous fat mass [3] [mg/cm mouse length] | Wet weight gastrocnemius muscle [3] [mg/mm tibia length] | Wet weight soleus muscle [3] [mg/mm tibia length] | Reduction of IL-6 (IL-6) [%] | Serum C-reactive protein levels (C-reactive protein) [mg/L] | Increase of p53 expression in relation to the Control group (p53) [%] | other results
1 | COc1cccc2c1C(=O)c1c(O)c3c(c(O)c1C2=O)C[C@@](O)(C(=O)CO)C[C@@H]3O[C@H]1C[C@H](N)[C@H](O)[C@H](C)O1 [Doxo, doxorubicin] | 26 | 2.22 ± 0.63 | 3.6 ± 1.7 | 0.1 ± 0.01 | 2.5 ± 0.6 | 2.2 ± 0.3 | 11.7 ± 0.2 | 0.7 ± 0.15 | 43 | 2.39 | 20 | Apoptotic cells (EAC cells [1]; [7]): 4%; Necrosis (necrotic cells) (EAC cells [1]; [7]): 36%; Viable cells (EAC cells [1]; [7]): 60%; Percentage of death induced by each treatment (EAC cells [1]; as restated in the discussion): 36%; Increase of Bax/Bcl-xL ratio in relation to the Control (Bax/Bcl-xl): 38%; Reduction of IL-1β content in relation to controls (IL-1β): 6%; Surviving animals at the end of the observation period (EAC cells [2]; n=12, 30 days): 3 animals; Attenuation of weight loss in relation to controls ([3]; EAC caused 11% body weight loss): 54%; Increase in C-reactive protein levels compared to controls (C-reactive protein; serum): 47%; Inhibition of tumor growth (EAC cells [4]; from waist circumference, in relation to the Control group, n=6): 42%; Reduction of body weight variation in relation to the Control group (EAC cells [4]; mice with EAC): 39%; Reduction of volume of ascitic liquid in relation to the Control group (EAC cells [4]; mice with EAC): 54%
2 | CC(C)(O)CC(=O)O [HMB, β-hydroxy-β-methylbutyrate] | 13.5 | 2.81 ± 1.05 | 3.2 ± 0.3 | 0.1 ± 0.04 | 3.0 ± 0.8 | 1.9 ± 1.1 | 8.9 ± 0.5 | 0.8 ± 0.2 | 64 | 0.31 | 10 | Improved survival [5]: 42%; Reduction of COX-2 expression compared to controls (COX-2): 4%
3 | CC(C)(O)CC(=O)O [free acid form of HMB, β-hydroxy-β-methylbutyric acid] |  |  |  |  |  |  |  |  |  |  |  | Absorption compared with CaHMB [6]: more rapidly absorbed than CaHMB
